The source of these data is PMC10520873, “Biochemical investigation of the tryptophan biosynthetic enzyme anthranilate phosphoribosyltransferase in plants” (The Journal of Biological Chemistry, 2023).

Each structure is given as a SMILES string. Bounds are passed on as bounds.

What all share (format): biochemical
In experiment [1] the target is T1, PvPAT1 (Pistacia vera, UniProt Z9K6G7Q8L5).
T1 construct: codon-optimized gene in pET28a, His-tagged, E. coli BL21 (DE3), Ni-NTA
T1 sequence (Z9K6G7Q8L5 1-311): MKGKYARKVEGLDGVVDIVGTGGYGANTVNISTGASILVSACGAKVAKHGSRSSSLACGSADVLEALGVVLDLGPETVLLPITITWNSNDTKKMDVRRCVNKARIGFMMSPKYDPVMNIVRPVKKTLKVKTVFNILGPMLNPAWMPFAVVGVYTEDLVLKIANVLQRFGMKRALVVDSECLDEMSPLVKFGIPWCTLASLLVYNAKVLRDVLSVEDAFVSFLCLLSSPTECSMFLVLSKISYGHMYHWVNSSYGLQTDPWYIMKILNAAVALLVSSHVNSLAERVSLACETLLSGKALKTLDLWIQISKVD
Put plainly: coupled pyrophosphate release to NADH oxidation, […] nm; Michaelis-Menten fit. The settings on record: 1 mM PR-PPi, 45 mM imidazole HCl pH 7.4, 30 °C.

Experiment [2] addresses T2, SmPAT1 (Selaginella moellendorffii, UniProt Z9CFY1Y489).
T2 construct: gene PAT1; codon-optimized gene in pET28a, His-tagged, E. coli BL21 (DE3), Ni-NTA
Put plainly: EnzChek pyrophosphate assay (PNP-coupled, […] nm).

In experiment [3] the target is T3, PpPAT1 (Physcomitrium patens, UniProt A9T6I7).
T3 construct: gene LOC112294424; codon-optimized gene in pET28a, His-tagged, E. coli BL21 (DE3), Ni-NTA
Put plainly: EnzChek pyrophosphate assay (PNP-coupled, […] nm).

The target in the next experiment is T4, AtPAT1 (Arabidopsis thaliana, UniProt Q02166).
T4 construct: gene PAT1; codon-optimized gene in pET28a, His-tagged, E. coli BL21 (DE3), Ni-NTA
Nature of the experiment: coupled pyrophosphate release to NADH oxidation, […] nm; substrate inhibition fit. The settings on record: 1 mM PR-PPi, 45 mM imidazole HCl pH 7.4, 30 °C.

Another experiment addresses T5, CsPAT1 (Citrus sinensis, UniProt A0ACB8LSF1).
T5 construct: gene KPL71_006645; codon-optimized gene in pET28a, His-tagged, E. coli BL21 (DE3), Ni-NTA
Described as above. Conditions: 1 mM PR-PPi, 45 mM imidazole HCl pH 7.4, 30 °C.

Experiment [4] deals with T1, PvPAT1. The description is as above. The settings on record: 1 mM PR-PPi, 45 mM imidazole HCl pH 7.4, 30 °C.
Experiment [5] has as its target T3, PpPAT1. The description is as above. Conditions: 1 mM PR-PPi, 45 mM imidazole HCl pH 7.4, 30 °C.
The target of experiment [6] is T2, SmPAT1. The experiment is described as above. Conditions: 1 mM PR-PPi, 45 mM imidazole HCl pH 7.4, 30 °C.
The next experiment has as its target T6, JrPAT1 (Juglans regia, UniProt A0A6P9ES87).
T6 construct: gene LOC109021987; codon-optimized gene in pET28a, His-tagged, E. coli BL21 (DE3), Ni-NTA
The description is as above. Conditions: 1 mM PR-PPi, 45 mM imidazole HCl pH 7.4, 30 °C.

Broadly, the Km is the concentration of substrate that gives half-maximal velocity. `Nc1c(O)cccc1C(=O)O` [3-hydroxyanthranilate]: the Km on PvPAT1 [1] (3-HAA 0-0.5 mM) was determined as 50 ± 5.3 µM.

What is called IC50 is the midpoint of a concentration-inhibition curve. Read a high IC50 as weaker potency in that assay. Compound `N[C@@H](Cc1ccccc1)C(=O)O` [Phe] had an IC50 against SmPAT1 [2] of 1.98 mM.

In turn, `N[C@@H](Cc1ccc(O)cc1)C(=O)O` [Tyr] yielded an IC50 at PpPAT1 [3] of 1.18 mM.

On to `Nc1ccccc1C(=O)O` [anthranilate], for which the “Ki” value on AtPAT1 is recorded as 4.3 ± 0.4 mM; on CsPAT1 it was 4.1 ± 0.6 mM; on PvPAT1 [4] it was 1.8 ± 0.4 mM; on PpPAT1 [5], more than 5 mM; at SmPAT1 [6] it was 3.6 ± 0.8 mM; on JrPAT1, more than 5 mM. In addition, the Km on PvPAT1 [1] (anthranilate 0-0.75 mM) turned out to be 32.1 ± 4.7 µM.
